Values of other authors in patent publication US6486186B2, “Thiazole compounds as cyclic AMP-specific phosphodiesterase inhibitors and method of using the same” (ICOS Corporation, priority 1999, dated 2002).

Assays:
[1] = test system: recombinant human PDE4; conditions: literature value; read-out: reported IC50 with respect to inhibiting recombinant human PDE4
[2] = in vivo

IC50 [1]	Compound	emetic potential relative to the (+)-enantiomer (S-rolipram) [2]
~200 nM	COc1ccc(C2CNC(=O)C2)cc1OC1CCCC1 (stereo not drawn) [Rolipram]	–
–	COc1ccc([C@@H]2CNC(=O)C2)cc1OC1CCCC1 (single isomer, unassigned) [(−)-enantiomer of rolipram]	about ten-fold more emetic
~2 nM	COC(=O)N1CC(c2ccc(OC)c(OC3CCCC3)c2)C(C)(C(C)=O)C1 (stereo not drawn) [structural formula (I)]	–
